Data published in patent US9139525B2, “N-oxide and/or di-N-oxide derivatives of dopamine receptor stabilizers/modulators displaying improved cardiovascular side-effects profiles” (TEVA PHARMACEUTICALS INTERNATIONAL GMBH, priority 2007, dated 2015).

Tests used:
[1] = tested on: dopamine, DOPAC and 5-HIAA in the striatum; experiment: Microdialysis in rat striatum (freely moving rats; dopamine, DOPAC and 5-HIAA by HPLC with electrochemical detection); assay type: in vivo
Description: Microdialysis in Rat Striatum Standard microdialysis experiments were performed on-line in freely moving rats. The striatum was perfused with a Ringer solution and dopamine, DOPAC and 5-HIAA were quantified by HPLC with electrochemical detection.

[2] = after S-3-OTf-3-PPP-N-ox (13) 100 μmol/kg p.o.; between 0 h and 6 h; sampled every 1 h
Description: 3-OTf-3-PPP-N-ox was measured at Rt=11.68 min with a +MRM of 368/235. Precursor 3-OTf-3-PPP was measured at Rt=11.50 min with a +MRM of 352/219.

[3] = oral administration, 91 μmol/kg

## CCCN1CCC[C@@H](c2cccc(OS(=O)(=O)C(F)(F)F)c2)C1 [(−)-3-PPP triflate, S-3-Trifluoro-methanesulfonyloxy-(1-n-propyl-phenyl)piperidine, reference compound]
[1]; 100 μmol/kg per os
  3,4-dihydroxyphenylacetic acid (DOPAC) level, maximum: about 175%
  dopamine (DA) level, maximum: about 175%
  level of 5-hydroxyindolacetic acid (HIAA): around 100%
  time of maximum of DA and DOPAC level: about 150 minutes
[1]; 100 μmol/kg per os, after about 195 minutes (3.25 hours)
  levels of dopamine and DOPAC after about 195 minutes: decrease
[1]; 100 μmol/kg per os, after about 240 minutes (4 hours)
  dopamine level, second rise: 350 % of controls
[2]
  striatal concentration of the precursor after dosing of the N-oxide: continuous rise

## CCC[N+]1([O-])CCC(c2cccc(S(C)(=O)=O)c2)CC1 (centres unmarked) [ACR16 N-oxide, 4-(3-Methanesulfonyl-phenyl)-1-propyl-piperidine-1-oxide]
[1]; 50 μmol/kg per os
  3,4-dihydroxyphenylacetic acid (DOPAC) level: slight rise
[1]; 50 μmol/kg per os, after about 45 minutes
  dopamine (DA) level: considerable rise
[1]; 100 μmol/kg per os given at 180 minutes after a first 50 μmol/kg per os
  3,4-dihydroxyphenylacetic acid (DOPAC) level: goes up
[1]; 100 μmol/kg per os given at 180 minutes after a first 50 μmol/kg per os, peak after 240 minutes
  level of dopamine, maximum height: more than 250 % of controls

## CCC[N+]1([O-])CC=C(c2cccc(S(C)(=O)=O)c2)CC1 (centres unmarked) [ACR16-ene-N-ox, 4-(3-Methanesulfonyl-phenyl)-1-propyl-1,2,3,6-tetrahydro-pyridine-N-oxide]
[1]; [3]
  DA release: about 300 % of controls
  DOPAC release: about 300 % of controls
  duration of the effects on DA and DOPAC release: > 4 h

## CCC[N+]1([O-])CCCC(c2cccc(OS(=O)(=O)C(F)(F)F)c2)C1 (centres unmarked) [S-3-PPP triflate-N-oxide, S-Trifluoromethanesulfonic acid 3-(1-propyl-piperidin-3-yl)-phenyl ester-1-oxide]
[1]; 100 μmol/kg per os
  3,4-dihydroxyphenylacetic acid (DOPAC) level, maximum: ~150%
  dopamine (DA) level, maximum: about 230%
  level of 5-hydroxyindolacetic acid (HIAA): around 100%
  time of maximum of DA and DOPAC level: about 120 minutes
[1]; 100 μmol/kg per os, whole experiment (6 h)
  course of DA and DOPAC levels after the maximum: constant over the whole experiment
[1]; microdialysis in rat striatum
  pharmacological effect and duration of action: pronounced pharmacological effect with a very long duration of action
